Consider one compound from patent US11484576B2, “Methods of promoting corticospinal neuronal outgrowth in neuronal lesions using a pro-regenerative human osteopontin fragment” (THE CHILDREN'S MEDICAL CENTER CORPORATION, priority 2017, dated 2022).

Series [1] relates to mice with T10 lateral hemisection. In words: Irregular ladder walking after spinal cord T10 lateral hemisection. The series is classed as in vivo, mouse. The conditions noted are these: OPN/IGF1 treated group, T10 hemisection. On the procedure: (§1) Injury Models. […] Briefly, a midline incision was made over the thoracic vertebrae, followed by a T10 laminectomy. The unilateral hemisection was then performed carefully using both scalpel and micro-scissors, avoiding, to the greatest extent, the damage of the spinal cord dura. The muscle layers were then sutured and the skin was secured with wound clips. All mice received post hoc histological analysis and those with spared CST axons (incomplete lateral hemisection) or with significant less CST axons on the contra-lesional side (over lateral hemisection) at the lumbar spinal cord (L3), exemplified in FIG. 9A, were excluded for behavioral analysis.
Virus and Protein Injection.
Irregular Ladder Walking. […] Briefly, the ladder was elevated 30 cm above the ground. […] To prevent animals from learning the pattern, the irregular pattern was changed from trial to trial. All trials were video recorded (Hotshot e64, 100 fps) and paw placement was analyzed twice by blinded observers. Steps with precise placement of the center of the palm on the rung (for both forelimbs and hindlimbs) and digits closed (for forelimbs) were defined as correct steps (hit). All other steps were recorded as errors, which included two types: 1) Miss: when crossing the ladder, the forelimb/hindlimb either completely miss the rung or contact the rung with the wrist/heel instead of the paw; 2) Slip: when crossing the ladder, the mice use a few digits instead of the paw to place on the rungs, causing the subsequent slip on the rungs. The results were expressed as both percentage of total errors and percentage of different placement categories (hit, miss and slip).
(§2) Pharmacological Treatment. […] All behavioral tests were then accomplished between 1-3 hours post administration.

Series [2] shares this test system. Nature of the series: Ground walking and treadmill walking after T10 lateral hemisection. The series is classed as in vivo, mouse. The note with it: i.p. On the procedure:
as §1, §2

Series [3] relates to mice with unilateral photothrombotic stroke. In words: Single pellet retrieval and irregular ladder walking after unilateral photothrombotic cortical stroke. The series is classed as in vivo, mouse. The note with it: ischemic mice treated with OPN/IGF1. From the text:
The procedure of unilateral photothrombotic stroke was similar to that described elsewhere (Watson et al., 1985; Wahl et al., 2014). Briefly, mice were fixed in a stereotactic frame, with the skull exposed. To unilaterally cover the sensoromotor cortex, the cold light source (Zeiss, CL 1500HAL, 3000K) was positioned over an opaque template with an opening (a circle with a diameter of 2.5 mm) centered at (−0.5, 2.0 mm, anterior and lateral to the bregma) on the cortex contralateral to the preferred paw in the food pellet retrieval task. […] Lesion volumes were calculated when mice brains were fixed at the end point of the experiments.
Irregular Ladder Walking. […] All trials were video recorded (Hotshot e64, 100 fps) and paw placement was analyzed twice by blinded observers. […] All other steps were recorded as errors, which included two types: 1) Miss: when crossing the ladder, the forelimb/hindlimb either completely miss the rung or contact the rung with the wrist/heel instead of the paw; 2) Slip: when crossing the ladder, the mice use a few digits instead of the paw to place on the rungs, causing the subsequent slip on the rungs. The results were expressed as both percentage of total errors and percentage of different placement categories (hit, miss and slip).
Single pellet Retrieval. […] The success rate was calculated as: number of successful retrievals/total attempts per trail *100. […]

In another series the test system is injured mice. In words: Adverse effects of systemic potassium channel blockers in injured mice. It is filed as in vivo. The conditions noted are these: injured mice treated with OPN/IGF1. On the procedure: Chemicals and Antibodies. For systematic administration (i.p.), Quipazine [Sigma (Q1004), 0.2 mg/kg), SKF-82197 [Tocris (1447) 0.1 mg/kg], and 8-OH-DPAT [Tocris (0529), 0.1 mg/kg), 4AP [Sigma (275875), 1 mg/kg, 3 mg/kg), 4AP-MeOH [Santa Cruz (sc-267247), (1 mg/kg)] were dissolved in saline. Tamoxifen (Sigma, 10540-29-1) was dissolved in oil. For diphtheria toxin mediated cell ablation, we purchased the diptheria toxin from Sigma (D0564). For immunostaining, the primary antibody used were chicken anti-GFP [Abcam (Cat: ab13970)], rabbit anti-RFP [Abcam (Cat: ab34771)], rabbit anti-PKCγ [Santa Cruz (sc211)], rabbit anti-GFAP [DAKO (Z0334)]; rabbit anti-5-HT [Immunostar (20080)], rabbit-anti-IGFR [Santa Cruz (sc-712)] rabbit-anti-pIGFR[3 [Cell signaling technology (3024)], rabbit-anti-pS6 [Cell signaling technology (4857)], rat anti-CD68 [Bio-Rad (MCA 1957)], and Guinea pig-anti-Vglut1 [Synaptic Systems (135304)].
Pharmacological Treatment. […] A pilot experiment was performed and determined that 4AP (1 mg/kg, 3 mg/kg) and 4AP-MeOH (1 mg/kg) achieved their maximal effects within 1-3 hours post systematic administration (i.p.). […]

Regarding `Nc1ccncc1CO` [4-AP-MeOH, 4-aminopyridine-3-methanol], the “error rate, irregular ladder walking, after 4-AP-MeOH” value in series [1] (1 mg/kg i.p.) was 30%. In series [1], the “error rate, irregular ladder walking, before 4-AP-MeOH” value is listed as “about 48%”. In series [2], the “recovery of treadmill walking performance compared to the control” value is listed as “neither 4-AP nor 4-AP-MeOH had significant effects”. In addition, in series [3], the “additional effect on single pellet retrieval and irregular ladder walking” value is reported as “further improvements on both assays”. Besides, the “effect and safety compared to 4-AP” value with injured mice was “significantly better effects with broader safety doses”.
